Laboratory results reported in ChEMBL document CHEMBL3044974, “Design, synthesis, insecticidal activity and structure-activity relationship of 3,3-dichloro-2-propenyloxy-containing phthalic acid diamide structures” (2012).

Experiments:
Format in all cases: functional
Plutella xylostella [1] = experiment: Insecticidal activity against Plutella xylostella (diamondback moth) third-instar larvae reared on 10 ug/mL compound pre-treated cabbage leaf disks assessed as insect mortality measured after 3 days post compound treatment by leaf dipping method
Plutella xylostella [2] = experiment: Insecticidal activity against Plutella xylostella (diamondback moth) third-instar larvae reared on 10 ug/mL compound pre-treated cabbage leaf disks assessed as insect mortality measured after 2 days post compound treatment by leaf dipping method
Plutella xylostella [3] = experiment: Insecticidal activity against Plutella xylostella (diamondback moth) third-instar larvae reared on 100 ug/mL compound pre-treated cabbage leaf disks assessed as insect mortality measured after 2 days post compound treatment by leaf dipping method
Plutella xylostella [4] = experiment: Insecticidal activity against Plutella xylostella (diamondback moth) third-instar larvae reared on 100 ug/mL compound pre-treated cabbage leaf disks assessed as insect mortality measured after 3 days post compound treatment by leaf dipping method

With `Cc1cc(C(F)(C(F)(F)F)C(F)(F)F)ccc1NC(=O)c1cccc(I)c1C(=O)NC(C)(C)CS(C)(=O)=O` [FLUBENDIAMIDE] the mortality (Plutella xylostella [1]) was 100%, the mortality (Plutella xylostella [2]) was 67% and the mortality (Plutella xylostella [3]) was 100%.
Work on `Cc1cc(NC(=O)c2cccc(I)c2C(=O)NC(C)(C)C)ccc1OCC=C(Cl)Cl` yielded a mortality (Plutella xylostella [4]) of 25% and a mortality (Plutella xylostella [3]) of 0%.
For `CC(C)(C)NC(=O)c1c(I)cccc1C(=O)Nc1ccc(OCC=C(Cl)Cl)cc1C(F)(F)F`, the mortality (Plutella xylostella [4]) was 90% and the mortality (Plutella xylostella [3]) was 65%.
For `CC(C)(C)NC(=O)c1c(I)cccc1C(=O)Nc1ccc(OCC=C(Cl)Cl)cc1Cl`, the mortality (Plutella xylostella [1]) was 91%, the mortality (Plutella xylostella [2]) was 65% and the mortality (Plutella xylostella [4]) was 100%. It also gave a mortality (Plutella xylostella [3]) of 90%.
`COCC(C)(C)NC(=O)c1c(I)cccc1C(=O)Nc1ccc(OCC=C(Cl)Cl)c(C)c1` showed a mortality (Plutella xylostella [4]) of 70% and a mortality (Plutella xylostella [3]) of 42%.
In the case of `CC(C)(CS(C)(=O)=O)NC(=O)c1c(I)cccc1C(=O)Nc1ccc(OCC=C(Cl)Cl)cc1F`, the mortality (Plutella xylostella [4]) is reported as 90% and the mortality (Plutella xylostella [3]) is reported as 55%.
Work on `CSCC(C)(C)NC(=O)c1c(I)cccc1C(=O)Nc1ccc(OCC=C(Cl)Cl)cc1F` yielded a mortality (Plutella xylostella [1]) of 0%, a mortality (Plutella xylostella [2]) of 0% and a mortality (Plutella xylostella [4]) of 100%. The mortality (Plutella xylostella [3]) was 58%.
`COCC(C)(C)NC(=O)c1c(I)cccc1C(=O)Nc1ccc(OCC=C(Cl)Cl)cc1C` showed a mortality (Plutella xylostella [4]) of 72% and a mortality (Plutella xylostella [3]) of 47%.
`CC(C)(CS(C)(=O)=O)NC(=O)c1c(I)cccc1C(=O)Nc1ccc(OCC=C(Cl)Cl)cc1Cl` gave a mortality (Plutella xylostella [1]) of 20%, a mortality (Plutella xylostella [2]) of 0% and a mortality (Plutella xylostella [4]) of 100%. The mortality (Plutella xylostella [3]) was 75%.
With `CSCC(C)(C)NC(=O)c1c(I)cccc1C(=O)Nc1ccc(OCC=C(Cl)Cl)cc1C` the mortality (Plutella xylostella [1]) was 19%, the mortality (Plutella xylostella [2]) was 10% and the mortality (Plutella xylostella [4]) was 95%. For the same compound, the mortality (Plutella xylostella [3]) was 90%.
For `Cc1cc(OCC=C(Cl)Cl)ccc1NC(=O)c1cccc(I)c1C(=O)NC(C)(C)C`, the mortality (Plutella xylostella [1]) was 58%, the mortality (Plutella xylostella [2]) was 32% and the mortality (Plutella xylostella [4]) was 100%. It also gave a mortality (Plutella xylostella [3]) of 69%.
In the case of `CC(C)(C)NC(=O)c1c(I)cccc1C(=O)Nc1ccc(OCC=C(Cl)Cl)cc1`, the mortality (Plutella xylostella [4]) is reported as 78% and the mortality (Plutella xylostella [3]) is reported as 39%.
Work on `COCC(C)(C)NC(=O)c1c(I)cccc1C(=O)Nc1ccc(OCC=C(Cl)Cl)c(Cl)c1` yielded a mortality (Plutella xylostella [4]) of 61% and a mortality (Plutella xylostella [3]) of 42%.
For `CC(C)(C)NC(=O)c1c(I)cccc1C(=O)Nc1ccc(OCC=C(Cl)Cl)c(Cl)c1`, the mortality (Plutella xylostella [4]) was 76% and the mortality (Plutella xylostella [3]) was 57%.
`CSCC(C)(C)NC(=O)c1c(I)cccc1C(=O)Nc1ccc(OCC=C(Cl)Cl)c(C)c1` gave a mortality (Plutella xylostella [4]) of 10% and a mortality (Plutella xylostella [3]) of 0%.
In the case of `CC(C)(CS(C)(=O)=O)NC(=O)c1c(I)cccc1C(=O)Nc1ccc(OCC=C(Cl)Cl)c(Cl)c1`, the mortality (Plutella xylostella [4]) is reported as 48% and the mortality (Plutella xylostella [3]) is reported as 24%.
`CSCC(C)(C)NC(=O)c1c(I)cccc1C(=O)Nc1ccc(OCC=C(Cl)Cl)cc1C(F)(F)F` was tested, and the mortality (Plutella xylostella [4]) was 62% and the mortality (Plutella xylostella [3]) was 57%.
`CSCC(C)(C)NC(=O)c1c(I)cccc1C(=O)Nc1ccc(OCC=C(Cl)Cl)c(C(F)(F)F)c1` showed a mortality (Plutella xylostella [4]) of 0% and a mortality (Plutella xylostella [3]) of 0%.
`Cc1cc(OCC=C(Cl)Cl)ccc1NC(=O)c1cccc(I)c1C(=O)NC(C)(C)CS(C)(=O)=O` gave a mortality (Plutella xylostella [4]) of 81% and a mortality (Plutella xylostella [3]) of 76%.
`CC(C)(C)NC(=O)c1c(I)cccc1C(=O)Nc1ccc(OCC=C(Cl)Cl)cc1F` was tested, and the mortality (Plutella xylostella [1]) was 0%, the mortality (Plutella xylostella [2]) was 0% and the mortality (Plutella xylostella [4]) was 100%. For the same compound, the mortality (Plutella xylostella [3]) was 81%.
`FC(F)(F)c1ccc(OCCCOc2c(Cl)cc(OCC=C(Cl)Cl)cc2Cl)nc1` [PYRIDALYL] showed a mortality (Plutella xylostella [1]) of 37%, a mortality (Plutella xylostella [2]) of 13% and a mortality (Plutella xylostella [3]) of 100%.
Compound `CC(C)(C)NC(=O)c1c(I)cccc1C(=O)Nc1ccc(OCC=C(Cl)Cl)c(C(F)(F)F)c1` has a mortality (Plutella xylostella [4]) of 8% and a mortality (Plutella xylostella [3]) of 0%.
`CC(C)(CS(C)(=O)=O)NC(=O)c1c(I)cccc1C(=O)Nc1ccc(OCC=C(Cl)Cl)cc1C(F)(F)F` gave a mortality (Plutella xylostella [4]) of 69% and a mortality (Plutella xylostella [3]) of 25%.
`COCC(C)(C)NC(=O)c1c(I)cccc1C(=O)Nc1ccc(OCC=C(Cl)Cl)cc1C(F)(F)F` showed a mortality (Plutella xylostella [4]) of 44% and a mortality (Plutella xylostella [3]) of 32%.
For `CSCC(C)(C)NC(=O)c1c(I)cccc1C(=O)Nc1ccc(OCC=C(Cl)Cl)cc1`, the mortality (Plutella xylostella [4]) was 45% and the mortality (Plutella xylostella [3]) was 15%.
In the case of `COCC(C)(C)NC(=O)c1c(I)cccc1C(=O)Nc1ccc(OCC=C(Cl)Cl)c(C(F)(F)F)c1`, the mortality (Plutella xylostella [4]) is reported as 44% and the mortality (Plutella xylostella [3]) is reported as 42%.
For `CSCC(C)(C)NC(=O)c1c(I)cccc1C(=O)Nc1ccc(OCC=C(Cl)Cl)cc1Cl`, the mortality (Plutella xylostella [1]) was 43%, the mortality (Plutella xylostella [2]) was 0% and the mortality (Plutella xylostella [3]) was 100%.
`Cc1cc(NC(=O)c2cccc(I)c2C(=O)NC(C)(C)CS(C)(=O)=O)ccc1OCC=C(Cl)Cl` was tested, and the mortality (Plutella xylostella [4]) was 19% and the mortality (Plutella xylostella [3]) was 8%.
For `COCC(C)(C)NC(=O)c1c(I)cccc1C(=O)Nc1ccc(OCC=C(Cl)Cl)cc1Cl`, the mortality (Plutella xylostella [4]) was 63% and the mortality (Plutella xylostella [3]) was 54%.
For `COCC(C)(C)NC(=O)c1c(I)cccc1C(=O)Nc1ccc(OCC=C(Cl)Cl)cc1F`, the mortality (Plutella xylostella [4]) was 61% and the mortality (Plutella xylostella [3]) was 47%.
With `CC(C)(CS(C)(=O)=O)NC(=O)c1c(I)cccc1C(=O)Nc1ccc(OCC=C(Cl)Cl)cc1` the mortality (Plutella xylostella [4]) was 60% and the mortality (Plutella xylostella [3]) was 15%.
`CC(C)(CS(C)(=O)=O)NC(=O)c1c(I)cccc1C(=O)Nc1ccc(OCC=C(Cl)Cl)c(C(F)(F)F)c1` was tested, and the mortality (Plutella xylostella [4]) was 0% and the mortality (Plutella xylostella [3]) was 0%.
With `CSCC(C)(C)NC(=O)c1c(I)cccc1C(=O)Nc1ccc(OCC=C(Cl)Cl)c(Cl)c1` the mortality (Plutella xylostella [4]) was 81% and the mortality (Plutella xylostella [3]) was 38%.
